Results: publication PMC10102067, “Synthesis of vancomycin fluorescent probes that retain antimicrobial activity, identify Gram-positive bacteria, and detect Gram-negative outer membrane damage” (Communications Biology, 2023)
Values after ≈ are worked out from the molar mass of the structure shown. Where a name gives a salt, the structure may show the parent alone. Read-outs that look alike come from different tables or passages of the source. Bridge positions count the residues as written; N and C are the ends. Peptide text beside a SMILES is read from it.

Legend:
[1] = test system: E. coli; assay: microbe, parasite or virus in culture
Procedure: Bacteria were obtained from the American Type Culture Collection (ATCC; Manassas, VA, USA), Merck Sharp & Dohme (Kenilworth, NJ), the Coli Genetic Stock Center (CGSC, Yale University), Network on Antimicrobial Resistance in Staphylococcus aureus (NARSA) via BEI Resources (www.beiresources.org) and independent academic clinical isolate and mutant collections. All species used in this study were described fully in Table S4. Bacteria were cultured in Cation-Adjusted Mueller-Hinton Broth (CAMHB, Bacto Laboratories, Cat No. 212322) or Muller Hinton Broth (MHB, Bacto Laboratories, Cat No. 211443) at 37 °C overnight. A sample of each culture was then diluted 50-fold in MHB and incubated at 37 °C for 1.5–3 h. The stock solutions of vancomycin probes 7, 8 and 9 were prepared at 1.28 mg/mL in sterile water. The compounds were serially diluted two-fold across the wells, with concentrations ranging from 0.06 µg/mL to 128 µg/mL, plated in duplicate. […]

[2] = test system: E. coli ATCC 25922; assay: Permeability test in Gram-negative bacteria, flow cytometry method (Fig. 4i); assay type: cell-based; details: compound 0.125–128 µg/mL 1 h 37 °C, then probe 9 32 µg/mL 30 min
Procedure: E. coli ATCC 25922 cells were cultured in LB at 37 °C overnight. […] The resultant mid-log phase cultures were harvested and washed once with HBSS, then resuspended in HBSS to an OD600 of 1. Then 1 mL of the cultures were transferred to Eppendorf tubes and centrifuged. Solutions (1 mL) of antibiotics (0.125–128 µg /mL) and isopropanol (100 %) was added, then left for 1 h at 37 °C with shaking (180 rpm). […] Bacteria were washed again with HBSS, the pellets were suspended in 200 µL of HBSS, and 100 µL of the suspended bacteria solution was added into black 96-well plates (Black flat bottom, 96-Well plate, Corning, Cat No. CLS3915-100EA) for Tecan plate reader measurement (Tecan Plate Reader, Infinite M1000 Pro). Excitation: 475 nm; Emission: 550 nm. On the other hand, suspended bacteria solution was then diluted 1000-fold in HBSS for flow cytometer measurement (Cytoflex S, Beckman Coulter, Inc. 250 S. Kraemer Blvd. Brea, CA 92821 U.S.A.). The detector used here was FITC (Excitation 488 nm; Emission 525/40 nm). 40000 events were collected. The data was analysed using Kaluza Analysis 2.1 software (Beckman Coulter, Inc. 250 S. Kraemer Blvd. Brea, CA 92821 U.S.A.) and statistical software GraphPad Prism 8 (San Diego, CA, U.S.A.).

[3] = Escherichia coli, ATCC25922, read-out: E. coli MIC, Table S2: ATCC 25922 FDA Control, CaMHB, non-treated polystyrene plate
[4] = Escherichia coli, ATCC25922, read-out: E. coli MIC, Table S2: ATCC 25922 FDA Control, MHB, non-treated polystyrene 96-well plate
[5] = Escherichia coli, read-out: E. coli MIC, Table S2: CGSC7139 DC2 mutant, CaMHB, non-treated polystyrene plate
[6] = Escherichia coli, read-out: E. coli MIC, Table S2: CGSC7139 DC2 mutant, MHB, non-treated polystyrene plate
[7] = Escherichia coli, read-out: E. coli MIC, Table S2: MB4827 K12, CaMHB, non-treated polystyrene plate
[8] = Escherichia coli, read-out: E. coli MIC, Table S2: MB4827 K12, MHB, non-treated polystyrene plate
[9] = Escherichia coli, read-out: E. coli MIC, Table S2: MB4902 LpxC mutant, CaMHB, non-treated polystyrene plate
[10] = Escherichia coli, read-out: E. coli MIC, Table S2: MB4902 LpxC mutant, MHB, non-treated polystyrene plate
[11] = Table S2: ATCC 25922 FDA Control, CaMHB, non-treated polystyrene plate
[12] = Table S2: ATCC 25922 FDA Control, MHB, non-treated polystyrene 96-well plate
[13] = Table S2: MB4827 K12, CaMHB, non-treated polystyrene plate
[14] = Table S2: MB4827 K12, MHB, non-treated polystyrene plate
[15] = Table S2: MB4902 LpxC mutant, CaMHB, non-treated polystyrene plate
[16] = Table S2: MB4902 LpxC mutant, MHB, non-treated polystyrene plate

CN[C@H](CC(C)C)C(=O)N[C@H]1C(=O)N[C@@H](CC(N)=O)C(=O)N[C@H]2C(=O)N[C@H]3C(=O)N[C@H](C(=O)N[C@H](C(=O)O)c4cc(O)cc(O)c4-c4cc3ccc4O)[C@H](O)c3ccc(c(Cl)c3)Oc3cc2cc(c3O[C@@H]2O[C@H](CO)[C@@H](O)[C@H](O)[C@H]2O[C@H]2C[C@](C)(N)[C@H](O)[C@H](C)O2)Oc2ccc(cc2Cl)[C@H]1O [1 Vancomycin, Vancomycin]
MIC ([1]; 3 h): > 64 µg/mL

CC[C@H](C)[C@H](NC(=O)[C@@H](NC(=O)[C@H](CO)NC(=O)[C@H](C)NC(=O)[C@@H](NC(=O)[C@H](CCCCN)NC(=O)[C@H](CCCCN)NC(=O)[C@@H](NC(=O)[C@@H](NC(=O)[C@H](CC(=O)O)NC(=O)[C@H](Cc1ccccc1)NC(=O)[C@H](CC(C)C)NC(=O)CN)C(C)C)[C@@H](C)CC)C(C)C)C(C)C)C(=O)NCC(=O)NCC(=O)N[C@@H](CC(C)C)C(N)=O [Citropin 1.1] (H-GLFDVIKKVASVIGGL-NH2; N-terminus and C-terminus assumed)
outer membrane damage: fluorescence of probe 9 labelling after treatment (in words) [2]: substantially higher concentrations before membrane damage was seen

CC[C@H]1OC(=O)[C@H](C)[C@@H](O[C@H]2C[C@@](C)(OC)[C@@H](O)[C@H](C)O2)[C@H](C)[C@@H](O[C@@H]2O[C@H](C)C[C@H](N(C)C)[C@H]2O)[C@](C)(O)C[C@@H](C)C(=O)[C@H](C)[C@@H](O)[C@]1(C)O [Erythromycin]
MIC [1, 3]: 64 µg/mL (≈ 87.2 µM) | MIC [1, 4]: 64 µg/mL (≈ 87.2 µM) | MIC [1, 5]: > 64 µg/mL | MIC [1, 6]: > 64 µg/mL | MIC [1, 7]: > 64 µg/mL | MIC [1, 8]: 64 µg/mL (≈ 87.2 µM) | MIC [1, 9]: 8 µg/mL (≈ 10.9 µM) | MIC [1, 10]: 8 µg/mL (≈ 10.9 µM)

CNC(C)C1CCC(N)C(OC2C(N)CC(N)C(OC3OCC(C)(O)C(NC)C3O)C2O)O1 (stereo not shown) [Gentamicin sulfate]
MIC [1, 3]: 1 µg/mL | MIC [1, 4]: 2 µg/mL | MIC [1, 5]: 0.5 to 2 µg/mL | MIC [1, 6]: 0.5 to 4 µg/mL | MIC [1, 7]: 0.5 to 1 µg/mL | MIC [1, 8]: 0.5 to 1 µg/mL | MIC [1, 9]: 0.25 to 0.5 µg/mL | MIC [1, 10]: 0.25 to 0.5 µg/mL

CC[C@H](C)[C@@H]1NC(=O)CNC(=O)[C@H](CCCNC(=N)N)NC(=O)[C@H](Cc2ccc(O)cc2)NC(=O)[C@@H]2CSSC[C@H](NC1=O)C(=O)N[C@@H](Cc1ccc(O)cc1)C(=O)N[C@@H](CCCNC(=N)N)C(=O)N[C@@H](CCCNC(=N)N)C(=O)N[C@H](C(=O)N[C@@H](CCCNC(=N)N)C(N)=O)CSSC[C@H](NC(=O)[C@H](Cc1c[nH]c3ccccc13)NC(=O)[C@@H](N)CCCCN)C(=O)N[C@@H](Cc1ccccc1)C(=O)N[C@@H](CCCNC(=N)N)C(=O)N[C@@H](C(C)C)C(=O)N2 [Tachyplesin-1] (H-KWCFRVCYRGICYRRCR-NH2; disulfide 3-16, 7-12 (inferred); N-terminus and C-terminus assumed)
outer membrane damage: fluorescence of probe 9 labelling after treatment (in words) [2]: increased fluorescence at the lowest concentrations

COc1cc(Cc2cnc(N)nc2N)cc(OC)c1OC [Trimethoprim]
E. coli MIC [1]: 1 to 2 µg/mL | MIC ([1]; Escherichia coli, ATCC25922, read-out: E. coli MIC): 1 µg/mL (≈ 3.44 µM) | MIC ([1]; Escherichia coli, read-out: E. coli MIC): 0.5 µg/mL (≈ 1.72 µM) | MIC [1, 5]: 0.25 to 0.5 µg/mL (≈ 0.861 to 1.72 µM) | MIC [1, 6]: 0.25 to 0.5 µg/mL (≈ 0.861 to 1.72 µM) | MIC [1, 9]: 0.5 to 1 µg/mL (≈ 1.72 to 3.44 µM) | MIC [1, 10]: 0.5 to 1 µg/mL (≈ 1.72 to 3.44 µM)

Colistin sulfate
E. coli MIC [1, 11]: 0.25 µg/mL | E. coli MIC [1, 12]: 0.25 µg/mL | E. coli MIC ([1]; Table S2: CGSC7139 DC2 mutant, CaMHB, non-treated polystyrene plate): 0.125 to 0.25 µg/mL | E. coli MIC ([1]; Table S2: CGSC7139 DC2 mutant, MHB, non-treated polystyrene plate): 0.125 µg/mL | E. coli MIC [1, 13]: 0.06 to 0.25 µg/mL | E. coli MIC [1, 14]: 0.06 to 0.125 µg/mL | E. coli MIC [1, 15]: 0.03 to 0.06 µg/mL | E. coli MIC [1, 16]: 0.03 to 0.06 µg/mL

Polymyxin B
E. coli MIC ([1]; ATCC 29522, NBS 96-well plates (Table 2)): 0.06 µg/mL | E. coli MIC ([1]; CFT073, NBS plates (Table 2)): ≤0.03 µg/mL | E. coli MIC ([1]; CFT073 WaaL mutant, NBS plates (Table 2)): ≤0.03 µg/mL | E. coli MIC ([1]; DC2 mutant, NBS plates (Table 2)): ≤0.03 µg/mL | E. coli MIC ([1]; LpxC mutant, NBS plates (Table 2)): ≤0.03 µg/mL | E. coli MIC ([1]; MB4827 K12, NBS plates (Table 2)): ≤0.03 µg/mL | E. coli MIC [1, 11]: 0.125 µg/mL | E. coli MIC [1, 12]: 0.125 µg/mL | E. coli MIC [1, 13]: 0.125 µg/mL | E. coli MIC [1, 14]: 0.125 µg/mL | E. coli MIC [1, 15]: 0.03 to 0.06 µg/mL | E. coli MIC [1, 16]: 0.03 to 0.06 µg/mL
